# Species on record: Homo sapiens
# Experiment: In vitro inhibition of ADP-induced aggregation of human platelets
# Assay type: functional
row,Compound,IC50 [µM]
1,CC(C)OC(=O)C(Cc1cccc(OCC(=O)O)c1)c1nc(-c2ccccc2)c(-c2ccccc2)o1 (stereo unspecified),1.22
2,O=C(O)COc1cccc(CC(CO)c2nc(-c3ccccc3)c(-c3ccccc3)o2)c1 (stereo unspecified),9.31
3,C=CCC(Cc1cccc(OCC(=O)O)c1)(C(=O)OCC)c1nc(-c2ccccc2)c(-c2ccccc2)o1 (stereo unspecified),7.68
4,O=C(O)COc1cccc(CC(c2nc(-c3ccccc3)c(-c3ccccc3)o2)c2cccs2)c1 (stereo unspecified),33.2
5,CCOC(=O)C(Cc1cccc(OCC(=O)O)c1)c1nc(-c2ccccc2)c(-c2ccccc2)o1 (stereo unspecified),0.12
6,C[S+]([O-])C(Cc1cccc(OCC(=O)O)c1)c1nc(-c2ccccc2)c(-c2ccccc2)o1 (stereo unspecified),7.08
7,O=C(O)COc1cccc(CC(CCCO)c2nc(-c3ccccc3)c(-c3ccccc3)o2)c1 (stereo unspecified),1.7
8,O=C(O)COc1cccc(CC(c2ccsc2)c2nc(-c3ccccc3)c(-c3ccccc3)o2)c1 (stereo unspecified),20.7
9,CC(C)C(Cc1cccc(OCC(=O)O)c1)c1nc(-c2ccccc2)c(-c2ccccc2)o1 (stereo unspecified),0.97
10,CCOP(=O)(OCC)C(Cc1cccc(OCC(=O)O)c1)c1nc(-c2ccccc2)c(-c2ccccc2)o1 (stereo unspecified),0.9
11,O=C(O)COc1cccc(CC(CCCCO)c2nc(-c3ccccc3)c(-c3ccccc3)o2)c1 (stereo unspecified),4.68
12,O=C(O)COc1cccc(CC(c2ccccc2)c2nc(-c3ccccc3)c(-c3ccccc3)o2)c1 (stereo unspecified),23.2
13,CCOC(=O)C(Cc1cccc(OCC(=O)O)c1OC)c1nc(-c2ccccc2)c(-c2ccccc2)o1 (stereo unspecified),1.18
14,CC#CCC(C)[C@H](O)/C=C/[C@@H]1[C@H]2C/C(=C/CCCC(=O)O)C[C@H]2C[C@H]1O (stereo partly specified) [ILOPROST],0.002
15,CS(=O)(=O)C(Cc1cccc(OCC(=O)O)c1)c1nc(-c2ccccc2)c(-c2ccccc2)o1 (stereo unspecified),7.96
16,O=C(O)COc1cccc(CC(CCO)c2nc(-c3ccccc3)c(-c3ccccc3)o2)c1 (stereo unspecified),2.92
17,CCOC(=O)/C(=C\c1cccc(OCC(=O)O)c1OC)c1nc(-c2ccccc2)c(-c2ccccc2)o1,0.13
18,CC(C)(C)C(Cc1cccc(OCC(=O)O)c1)c1nc(-c2ccccc2)c(-c2ccccc2)o1 (stereo unspecified),3.66
19,C=CCC(Cc1cccc(OCC(=O)O)c1)c1nc(-c2ccccc2)c(-c2ccccc2)o1 (stereo unspecified),0.57

# Results, then the compound that gave them:
row,IC50 [µM],Compound
1,12.2,CN(C)C(=O)C(=Cc1cccc(OCC(=O)O)c1)c1nc(-c2ccccc2)c(-c2ccccc2)o1
2,2,CCOC(=O)C(=Cc1cccc(OCC(=O)OC)c1)c1nc(-c2ccccc2)c(-c2ccccc2)o1 [listing 1 of 2 here]
3,1.3,CSC(Cc1cccc(OCC(=O)O)c1)c1nc(-c2ccccc2)c(-c2ccccc2)o1 (stereo unspecified)
4,0.25,N#C/C(=C\c1cccc(OCC(=O)O)c1)c1nc(-c2ccccc2)c(-c2ccccc2)o1
5,13,O=C(O)COc1cccc(/C=C/c2nc(-c3ccccc3)c(-c3ccccc3)o2)c1
6,20.3,O=C(O)COc1cccc(/C=C(\C(=O)O)c2nc(-c3ccccc3)c(-c3ccccc3)o2)c1
7,> 60,CCOC(=O)/C(=C\c1cccc(OCC(=O)OC(C)(C)C)c1)c1nc(-c2ccccc2)c(-c2ccccc2)o1
8,15,CNC(=O)/C(=C\c1cccc(OCC(=O)O)c1)c1nc(-c2ccccc2)c(-c2ccccc2)o1
9,0.44,N#CC(Cc1cccc(OCC(=O)O)c1)c1nc(-c2ccccc2)c(-c2ccccc2)o1 (stereo unspecified)
10,0.08,COC(=O)C(Cc1cccc(OCC(=O)O)c1)c1nc(-c2ccccc2)c(-c2ccccc2)o1 (stereo unspecified)
11,0.69,CNC(=O)C(Cc1cccc(OCC(=O)O)c1)c1nc(-c2ccccc2)c(-c2ccccc2)o1 (stereo unspecified)
12,0.18,O=C(O)COc1cccc(/C=C\c2nc(-c3ccccc3)c(-c3ccccc3)o2)c1
13,0.36,CCOC(=O)/C(=C\c1cccc(OCC(=O)O)c1)c1nc(-c2ccccc2)c(-c2ccccc2)o1
14,3.75,NC(=O)C(Cc1cccc(OCC(=O)O)c1)c1nc(-c2ccccc2)c(-c2ccccc2)o1 (stereo unspecified)
15,14,O=C(O)COc1cccc(CC(C(=O)O)c2nc(-c3ccccc3)c(-c3ccccc3)o2)c1 (stereo unspecified)
16,19.7,CCOC(=O)C(=Cc1cccc(OCC(=O)OC)c1)c1nc(-c2ccccc2)c(-c2ccccc2)o1 [listing 2 of 2 here]
17,3.56,CN(C)C(=O)C(Cc1cccc(OCC(=O)O)c1)c1nc(-c2ccccc2)c(-c2ccccc2)o1 (stereo unspecified)

# From ChEMBL document CHEMBL1126925, “Nonprostanoid prostacyclin mimetics. 4. Derivatives of 2-[3-[2-(4,5-diphenyl-2-oxazolyl)ethyl]phenoxy]acetic acid substituted alpha to the oxazole ring” (J Med Chem, 1993)
